{
  "source": "paper PMC6478789",
  "about": "“A chemical toolbox for the study of bromodomains and epigenetic signaling” (Nature Communications, 2019)",
  "data": [
    {"target": "TDRD3 (Homo sapiens, UniProt Q9H7E2)", "sequence (Q9H7E2 555-615 limits assumed, species assumed)": "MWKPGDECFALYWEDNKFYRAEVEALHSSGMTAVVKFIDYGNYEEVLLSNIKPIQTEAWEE", "assay": "Temperature shift assay (non-BRD reader domains)", "assay_type": "binding", "details": "10µM compound", "procedure": "(§1) Temperature shift assays have been described by Fedorov et al.[46]. Recombinant protein domains (bromodomain or kinases) at a concentration of 2 μM in 10 mM HEPES, pH 7.5, and 500 mM NaCl were mixed with 10 μM of chemical probes. Temperature-dependent protein unfolding profiles were measured using a Real-Time PCR Mx3005p machine (Stratagene).\n(§2) Wu et al., Supplementary figures and tables 14\n(§3) Supplementary Table 3: Selectivity screening data (non-BRD reader domains):\n(§4) Temperature shift assay data of BRD probes screened against a diver se panel of methyl-lysine\n(§5) reader domains. Compounds were screened a concentration of 10 µM. Shown are temperature", "units": {"Tm (C) 10µM, temperature shift": "Kelvin"}, "values": [
      {"smiles": "Cc1nnc2c3ccccc3c(N[C@@H](C)[C@H](c3ccccc3)N(C)C)nn12", "note": "[L-Moses]", "Tm (C) 10µM, temperature shift": -0.9},
      {"smiles": "Cc1c(NC(=O)c2cc(C(N)=O)nc3cc(F)ccc23)c(C(F)(F)F)nn1Cc1ccc(C#N)cc1", "note": "[BAY-876]", "Tm (C) 10µM, temperature shift": -1.0},
      {"smiles": "CO[C@H]1CNC[C@@H](OCC2CCC(F)(F)CC2)[C@@H]1Nc1ncc(-c2cncc(C)c2)c2cc(C)c(=O)[nH]c12", "note": "[GSK8814]", "Tm (C) 10µM, temperature shift": -0.6},
      {"smiles": "Cc1c(NC(=O)c2cc(C(N)=O)nc3cc(F)ccc23)c(C(F)(F)F)nn1Cc1ccc(C(C)(C)C)cc1", "note": "[BAY-588]", "Tm (C) 10µM, temperature shift": -5.3}
    ]},
    {"tested_on": "RBBP1", "assay": "Temperature shift assay (non-BRD reader domains)", "assay_type": "binding", "details": "10µM compound", "procedure": "as §1, §2, §3, §4, §5", "units": {"Tm (C) 10µM, temperature shift": "Kelvin"}, "values": [
      {"smiles": "Cc1nnc2c3ccccc3c(N[C@@H](C)[C@H](c3ccccc3)N(C)C)nn12", "note": "[L-Moses]", "Tm (C) 10µM, temperature shift": -0.4},
      {"smiles": "Cc1c(NC(=O)c2cc(C(N)=O)nc3cc(F)ccc23)c(C(F)(F)F)nn1Cc1ccc(C#N)cc1", "note": "[BAY-876]", "Tm (C) 10µM, temperature shift": -0.3},
      {"smiles": "CO[C@H]1CNC[C@@H](OCC2CCC(F)(F)CC2)[C@@H]1Nc1ncc(-c2cncc(C)c2)c2cc(C)c(=O)[nH]c12", "note": "[GSK8814]", "Tm (C) 10µM, temperature shift": -0.1},
      {"smiles": "Cc1c(NC(=O)c2cc(C(N)=O)nc3cc(F)ccc23)c(C(F)(F)F)nn1Cc1ccc(C(C)(C)C)cc1", "note": "[BAY-588]", "Tm (C) 10µM, temperature shift": -0.1}
    ]},
    {"target": "WDR5 (Homo sapiens, UniProt P61964)", "assay": "Temperature shift assay (non-BRD reader domains)", "assay_type": "binding", "details": "10µM compound", "procedure": "as §1, §2, §3, §4, §5", "units": {"Tm (C) 10µM, temperature shift": "Kelvin"}, "values": [
      {"smiles": "Cc1nnc2c3ccccc3c(N[C@@H](C)[C@H](c3ccccc3)N(C)C)nn12", "note": "[L-Moses]", "Tm (C) 10µM, temperature shift": 0.5},
      {"smiles": "Cc1c(NC(=O)c2cc(C(N)=O)nc3cc(F)ccc23)c(C(F)(F)F)nn1Cc1ccc(C#N)cc1", "note": "[BAY-876]", "Tm (C) 10µM, temperature shift": 0.4},
      {"smiles": "CO[C@H]1CNC[C@@H](OCC2CCC(F)(F)CC2)[C@@H]1Nc1ncc(-c2cncc(C)c2)c2cc(C)c(=O)[nH]c12", "note": "[GSK8814]", "Tm (C) 10µM, temperature shift": 0.2},
      {"smiles": "Cc1c(NC(=O)c2cc(C(N)=O)nc3cc(F)ccc23)c(C(F)(F)F)nn1Cc1ccc(C(C)(C)C)cc1", "note": "[BAY-588]", "Tm (C) 10µM, temperature shift": -7.3}
    ]},
    {"target": "53BP1 (Homo sapiens, UniProt Q12888)", "sequence (Q12888 1484-1603 limits assumed, species assumed)": "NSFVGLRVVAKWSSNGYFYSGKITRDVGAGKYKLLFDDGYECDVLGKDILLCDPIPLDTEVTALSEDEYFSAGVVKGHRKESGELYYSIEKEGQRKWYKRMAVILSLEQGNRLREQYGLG", "assay": "Temperature shift assay (non-BRD reader domains)", "assay_type": "binding", "details": "10µM compound", "procedure": "as §1, §2, §3, §4, §5", "units": {"Tm (C) 10µM, temperature shift": "Kelvin"}, "values": [
      {"smiles": "Cc1c(NC(=O)c2cc(C(N)=O)nc3cc(F)ccc23)c(C(F)(F)F)nn1Cc1ccc(C#N)cc1", "note": "[BAY-876]", "Tm (C) 10µM, temperature shift": 0.0},
      {"smiles": "CO[C@H]1CNC[C@@H](OCC2CCC(F)(F)CC2)[C@@H]1Nc1ncc(-c2cncc(C)c2)c2cc(C)c(=O)[nH]c12", "note": "[GSK8814]", "Tm (C) 10µM, temperature shift": -0.1},
      {"smiles": "Cc1c(NC(=O)c2cc(C(N)=O)nc3cc(F)ccc23)c(C(F)(F)F)nn1Cc1ccc(C(C)(C)C)cc1", "note": "[BAY-588]", "Tm (C) 10µM, temperature shift": -2.3}
    ]},
    {"target": "T1, SND1 (Homo sapiens, UniProt Q7KZF4)", "T1 sequence (Q7KZF4 729-787 limits assumed)": "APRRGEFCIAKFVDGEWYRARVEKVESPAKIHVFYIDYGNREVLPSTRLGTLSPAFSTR", "assay": "Temperature shift assay (non-BRD reader domains)", "assay_type": "binding", "details": "10µM compound", "procedure": "as §1, §2, §3, §4, §5", "units": {"Tm (C) 10µM, temperature shift": "Kelvin"}, "values": [
      {"smiles": "Cc1nnc2c3ccccc3c(N[C@@H](C)[C@H](c3ccccc3)N(C)C)nn12", "note": "[L-Moses]", "Tm (C) 10µM, temperature shift": -1.0},
      {"smiles": "Cc1c(NC(=O)c2cc(C(N)=O)nc3cc(F)ccc23)c(C(F)(F)F)nn1Cc1ccc(C#N)cc1", "note": "[BAY-876]", "Tm (C) 10µM, temperature shift": -0.9},
      {"smiles": "CO[C@H]1CNC[C@@H](OCC2CCC(F)(F)CC2)[C@@H]1Nc1ncc(-c2cncc(C)c2)c2cc(C)c(=O)[nH]c12", "note": "[GSK8814]", "Tm (C) 10µM, temperature shift": -0.5},
      {"smiles": "Cc1c(NC(=O)c2cc(C(N)=O)nc3cc(F)ccc23)c(C(F)(F)F)nn1Cc1ccc(C(C)(C)C)cc1", "note": "[BAY-588]", "Tm (C) 10µM, temperature shift": -1.0}
    ]},
    {"target": "FXR1 (Homo sapiens, UniProt P51114)", "sequence (P51114 2-132 limits assumed, species assumed)": "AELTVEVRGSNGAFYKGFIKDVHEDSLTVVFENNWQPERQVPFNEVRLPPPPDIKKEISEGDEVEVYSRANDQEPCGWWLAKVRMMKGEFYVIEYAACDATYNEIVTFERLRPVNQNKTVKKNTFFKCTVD", "assay": "Temperature shift assay (non-BRD reader domains)", "assay_type": "binding", "details": "10µM compound", "procedure": "as §1, §2, §3, §4, §5", "units": {"Tm (C) 10µM, temperature shift": "Kelvin"}, "values": [
      {"smiles": "Cc1nnc2c3ccccc3c(N[C@@H](C)[C@H](c3ccccc3)N(C)C)nn12", "note": "[L-Moses]", "Tm (C) 10µM, temperature shift": 0.3},
      {"smiles": "Cc1c(NC(=O)c2cc(C(N)=O)nc3cc(F)ccc23)c(C(F)(F)F)nn1Cc1ccc(C#N)cc1", "note": "[BAY-876]", "Tm (C) 10µM, temperature shift": 0.8},
      {"smiles": "CO[C@H]1CNC[C@@H](OCC2CCC(F)(F)CC2)[C@@H]1Nc1ncc(-c2cncc(C)c2)c2cc(C)c(=O)[nH]c12", "note": "[GSK8814]", "Tm (C) 10µM, temperature shift": 0.4},
      {"smiles": "Cc1c(NC(=O)c2cc(C(N)=O)nc3cc(F)ccc23)c(C(F)(F)F)nn1Cc1ccc(C(C)(C)C)cc1", "note": "[BAY-588]", "Tm (C) 10µM, temperature shift": -1.2}
    ]},
    {"target": "BRPF3 (Homo sapiens, UniProt Q9ULD4)", "sequence (Q9ULD4 1076-1159 limits assumed, species assumed)": "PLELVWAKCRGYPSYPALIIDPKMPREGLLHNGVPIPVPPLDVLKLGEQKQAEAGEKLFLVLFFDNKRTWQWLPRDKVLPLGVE", "assay": "Temperature shift assay (non-BRD reader domains)", "assay_type": "binding", "details": "10µM compound", "procedure": "as §1, §2, §3, §4, §5", "units": {"Tm (C) 10µM, temperature shift": "Kelvin"}, "values": [
      {"smiles": "Cc1nnc2c3ccccc3c(N[C@@H](C)[C@H](c3ccccc3)N(C)C)nn12", "note": "[L-Moses]", "Tm (C) 10µM, temperature shift": 1.0},
      {"smiles": "Cc1c(NC(=O)c2cc(C(N)=O)nc3cc(F)ccc23)c(C(F)(F)F)nn1Cc1ccc(C#N)cc1", "note": "[BAY-876]", "Tm (C) 10µM, temperature shift": -0.3},
      {"smiles": "CO[C@H]1CNC[C@@H](OCC2CCC(F)(F)CC2)[C@@H]1Nc1ncc(-c2cncc(C)c2)c2cc(C)c(=O)[nH]c12", "note": "[GSK8814]", "Tm (C) 10µM, temperature shift": -0.2}
    ]},
    {"target": "T2, UHRF1 (Homo sapiens, UniProt Q96T88)", "T2 sequence (Q96T88 126-285 limits assumed)": "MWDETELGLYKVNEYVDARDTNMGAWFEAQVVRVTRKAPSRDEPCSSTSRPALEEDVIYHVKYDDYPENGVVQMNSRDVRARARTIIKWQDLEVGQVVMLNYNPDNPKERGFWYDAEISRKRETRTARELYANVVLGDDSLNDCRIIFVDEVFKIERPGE", "assay": "Temperature shift assay (non-BRD reader domains)", "assay_type": "binding", "details": "10µM compound", "procedure": "as §1, §2, §3, §4, §5", "units": {"Tm (C) 10µM, temperature shift": "Kelvin"}, "values": [
      {"smiles": "Cc1c(NC(=O)c2cc(C(N)=O)nc3cc(F)ccc23)c(C(F)(F)F)nn1Cc1ccc(C#N)cc1", "note": "[BAY-876]", "Tm (C) 10µM, temperature shift": -0.2},
      {"smiles": "CO[C@H]1CNC[C@@H](OCC2CCC(F)(F)CC2)[C@@H]1Nc1ncc(-c2cncc(C)c2)c2cc(C)c(=O)[nH]c12", "note": "[GSK8814]", "Tm (C) 10µM, temperature shift": -0.2},
      {"smiles": "Cc1c(NC(=O)c2cc(C(N)=O)nc3cc(F)ccc23)c(C(F)(F)F)nn1Cc1ccc(C(C)(C)C)cc1", "note": "[BAY-588]", "Tm (C) 10µM, temperature shift": -0.4}
    ]},
    {"target": "EED (Homo sapiens, UniProt O75530)", "sequence (O75530 whole entry, species assumed, the tested form may be a part)": "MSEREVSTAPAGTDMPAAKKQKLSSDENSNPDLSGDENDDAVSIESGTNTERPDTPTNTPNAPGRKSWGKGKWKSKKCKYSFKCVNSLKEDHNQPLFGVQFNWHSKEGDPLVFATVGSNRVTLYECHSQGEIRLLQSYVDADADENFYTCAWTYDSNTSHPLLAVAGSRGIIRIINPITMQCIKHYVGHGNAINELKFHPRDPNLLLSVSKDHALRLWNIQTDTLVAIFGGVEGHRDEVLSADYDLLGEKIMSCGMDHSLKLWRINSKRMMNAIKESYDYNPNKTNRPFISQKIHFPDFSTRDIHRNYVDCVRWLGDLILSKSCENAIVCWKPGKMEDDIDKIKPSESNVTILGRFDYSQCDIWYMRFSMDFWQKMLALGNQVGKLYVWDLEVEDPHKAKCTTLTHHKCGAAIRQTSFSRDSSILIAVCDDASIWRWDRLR", "assay": "Temperature shift assay (non-BRD reader domains)", "assay_type": "binding", "details": "10µM compound", "procedure": "as §1, §2, §3, §4, §5", "units": {"Tm (C) 10µM, temperature shift": "Kelvin"}, "values": [
      {"smiles": "Cc1nnc2c3ccccc3c(N[C@@H](C)[C@H](c3ccccc3)N(C)C)nn12", "note": "[L-Moses]", "Tm (C) 10µM, temperature shift": -0.3},
      {"smiles": "Cc1c(NC(=O)c2cc(C(N)=O)nc3cc(F)ccc23)c(C(F)(F)F)nn1Cc1ccc(C#N)cc1", "note": "[BAY-876]", "Tm (C) 10µM, temperature shift": -0.7},
      {"smiles": "CO[C@H]1CNC[C@@H](OCC2CCC(F)(F)CC2)[C@@H]1Nc1ncc(-c2cncc(C)c2)c2cc(C)c(=O)[nH]c12", "note": "[GSK8814]", "Tm (C) 10µM, temperature shift": -0.4},
      {"smiles": "Cc1c(NC(=O)c2cc(C(N)=O)nc3cc(F)ccc23)c(C(F)(F)F)nn1Cc1ccc(C(C)(C)C)cc1", "note": "[BAY-588]", "Tm (C) 10µM, temperature shift": -0.5}
    ]}
  ]
}
